# Laboratory results published in US20160209428A1, “DIAGNOSTIC AND PREDICTIVE METABOLITE PATTERNS FOR DISORDERS AFFECTING THE BRAIN AND NERVOUS SYSTEM” (THE REGENTS OF THE UNIVERSITY OF CALIFORNIA, priority 2013, published 2016).
# “Also recorded” adds a separate entry of the source.
# Tests used:
# Format in all cases: in vivo
# [1] = system: maternal immune activation (MIA) mouse model; experiment: Plasma metabolomics after single-dose suramin or saline, MIA model; details: for Pathway normalized by single-dose suramin treatment: MIA mice
# Procedure: Only male animals that had been behaviorally evaluated were tested. Samples were analyzed on an AB SCIEX QTRAP 5500 triple quadrupole mass spectrometer equipped with a Turbo V electrospray ionization source, Shimadzu LC-20A UHPLC system and a PAL CTC autosampler (AB SCIEX). […] Plasma was separated by centrifugation at 600 g×5 min at 20° C. within 1 h of collection. Fresh lithium-heparin plasma was transferred to labeled tubes for storage at −80° C. for analysis. Typically, 45 μl of plasma was thawed on ice and transferred to a 1.7-ml Eppendorf tube. Two and one-half (2.5) microliters of a cocktail containing 35 commercial stable isotope internal standards and 2.5 μl of 310 stable isotope internal standards that were custom-synthesized in Escherichia coli and Saccharomyces cerevisiae by metabolic labeling with ^13C-glucose and ^13C-bicarbonate were added, mixed and incubated for 10 min at 20° C. to permit small molecules and vitamins in the internal standards to associate with plasma-binding proteins. Macromolecules (protein, DNA, RNA and so on) were precipitated by extraction with 4 volumes (200 μl) of cold (−20° C.), acetonitrile:methanol (50:50) (LCMS grade, Cat no. LC015-2.5 and GC230-4, Burdick & Jackson, Honeywell, Muskegon, Mich., USA), vortexed vigorously and incubated on crushed ice for 10 min, and then removed with centrifugation at 16000 g×10 min at 4° C. The supernatants containing the extracted metabolites and internal standards in the resulting 40:40:20 solvent mix of acetonitrile:methanol:water were transferred to labeled cryotubes and stored at −80° C. for LC-MS/MS (liquid chromatography-tandem mass spectrometry) analysis.
# LC-MS/MS analysis was performed by MRM under the Analyst v1.6.1 software control in both negative and positive modes with rapid polarity switching (50 ms). Nitrogen was used for curtain gas (set to 30), collision gas (set to high) and ion source gases 1 and 2 (set to 35). The source temperature was 500° C. Spray voltage was set to −4500V in negative mode and to 5500V in positive mode. The values for Q1 and Q3 mass-to-charge ratios (mz−1), declustering potential, entrance potential, collision energy and collision cell exit potential were determined and optimized for each MRM for each metabolite. Ten microliters of extract were injected with PAL CTC autosampler into a 250 mm×2.1 mm, 5-μm Luna NH2 aminopropyl HPLC column (Phenomenex) held at 25° C. for chromatographic separation. […] The flow rate was 300 μl min^−1. All the samples were kept at 4° C. during analysis. The chromatographic peaks were identified using MultiQuant v2.1.1 (AB SCIEX), confirmed by manual inspection and the peak areas were integrated. The median of the peak area of stable isotope internal standards was calculated and used for the normalization of metabolite concentration across the samples and batches. N=6, 6.5-month-old males per group. Metabolite data were log-transformed before multivariate and univariate analyses.
# Group means and s.e.m. are reported. Behavioral data involving more than two groups were analyzed by two-way analysis of variance (ANOVA) and one-way ANOVAs (GraphPad Prism 5.0d, GraphPad Software Inc., La Jolla, Calif., USA). Pair-wise post hoc testing was performed by the method of Tukey. Repeated measures ANOVA with prenatal treatment and drug as between subject factors and stimulus (mouse/cup) on time spent with mouse or cup was used as an additional test of social preference. Student's t-test was used for comparisons involving the two groups. Significance was set at P<0.05. Bonferroni post hoc correction was used to control for multiple hypothesis testing when t-tests were used to test social preference in two or more experimental groups. Metabolomic data were analyzed using multivariate partial least squares discriminant analysis, Ward hierarchical clustering and univariate one-way ANOVA with pairwise comparisons and post hoc correction by Fisher's least significant difference test in MetaboAnalyst.
# [2] = system: maternal immune activation (MIA) mouse model; experiment: Social approach (social preference), MIA model
# Procedure: To initiate the MIA model, pregnant dams were given two intraperitoneal injections of Poly(I:C) (Potassium salt; Sigma-Aldrich, St. Louis, Mo., USA, Cat no. P9582; >99% pure; <1% mononucleotide content). These were quantified by UV spectrophotometry. One unit (U) of poly(IC) was defined as 1 absorbance unit at 260 nm. Typically, 1U=12 μg of RNA. 0.25U/g [3 mg kg^−1] of poly(IC) was given on E12.5 and 0.125U g^−1 (1.5 mg kg^−1) on E17.5 as previously described. Contemporaneous control pregnancies were produced by timed matings and randomized assignment of pregnant dams to saline injection (5 μl g^−1 intraperitoneally (i.p.)) on E12.5 and E17.5.
# Offspring of timed matings were weaned at 3-4 weeks of age into cages of two to four animals. No mice were housed in isolation. Only males were evaluated in these studies. Littermates were identified by ear tags and distributed into different cages in order to minimize litter and dam effects. To avoid chance differences in groups selected for single-dose treatment, the saline and poly(IC) exposure groups were each balanced according to their social approach scores at 2.25 months. […] Beginning 2 days later, behaviors were evaluated. […]
# Social behavior in mice can be quantified as the time spent interacting with a novel (‘stranger’) mouse compared with the total time spent interacting with either a mouse or a novel inanimate object.
# [3] = system: maternal immune activation (MIA) mouse model; experiment: Rotarod (latency to fall), MIA model; details: MIA 6-month-old adults, single injection of suramin
# Excerpt: (N=8-13, 6.75-month-old males per group).
# Previous studies have shown age-dependent, postnatal loss of cerebellar Purkinje cells in the MIA model. This can reach up to 60% of Purkinje cells lost by 4 months (16 weeks) of age. Motor coordination measured by rotarod performance is deficient in the MIA model and is critically dependent on the integrity of Purkinje cell circuits in the cerebellum. Since Purkinje cells are known to be lost in MIA animals by 4 months (16 weeks) of age, it was hypothesized that APT given later in life would have no effect. The results confirmed this. […] Although cerebellar Purkinje cell density was not quantified in this study, our results are consistent with the notion that once Purkinje cells are lost, their function cannot be restored by APT in adult animals.
smiles,measurement,setting,value
"Cc1ccc(C(=O)Nc2ccc(S(=O)(=O)O)c3cc(S(=O)(=O)O)cc(S(=O)(=O)O)c23)cc1NC(=O)c1cccc(NC(=O)Nc2cccc(C(=O)Nc3cc(C(=O)Nc4ccc(S(=O)(=O)O)c5cc(S(=O)(=O)O)cc(S(=O)(=O)O)c45)ccc3C)c2)c1 [Suramin, suramin]","Pathways normalized by single-dose suramin treatment, all disturbed pathways","[1]; 17/18 pathways disturbed in the MIA model, plasma",94% (17/18)
same,Pathway normalized by single-dose suramin treatment,"[1]; Amino-sugar and galactose metabolism, plasma",Yes (1/1)
same,Pathway normalized by single-dose suramin treatment,"[1]; Bile salt metabolism, plasma",No (0/3)
same,Pathway normalized by single-dose suramin treatment,"[1]; Biopterin, neopterin, molybdopterin metabolism, plasma",Yes (1/1)
same,Pathway normalized by single-dose suramin treatment,"[1]; Cholesterol, cortisol, steroid metabolism, plasma",Yes (4/4)
same,Pathway normalized by single-dose suramin treatment,"[1]; GABA, glutamate, arginine, omithine, proline metabolism, plasma",Yes (1/1)
same,Pathway normalized by single-dose suramin treatment,"[1]; Glycolysis and gluconeogenesis, plasma",Yes (3/3)
same,Pathway normalized by single-dose suramin treatment,"[1]; Krebs cycle, plasma",Yes (2/2)
same,bile salt pathway disturbance,[1]; MIA model,not restored
same,Pathway normalized by single-dose suramin treatment,"[1]; Microbiome metabolism, plasma",Yes (6/6)
same,Pathway normalized by single-dose suramin treatment,"[1]; Oxalate, glyxoylate metabolism, plasma",Yes (2/2)
same,Pathway normalized by single-dose suramin treatment,"[1]; Phospholipid metabolism, plasma",Yes (4/4)
same,Pathway normalized by single-dose suramin treatment,"[1]; Purine metabolism, (metabolites normalized/discriminating), plasma 2 days after single dose",Yes (9/11)
same,Pathway normalized by single-dose suramin treatment,"[1]; Pyrimidine metabolism, plasma",Yes (1/1)
same,Pathway normalized by single-dose suramin treatment,"[1]; SAM, SAH, methionine, cysteine, glutathione metabolism, plasma",Yes (1/1)
same,Pathway normalized by single-dose suramin treatment,"[1]; Sphingolipid metabolism, plasma",Yes (4/4)
same,Pathway normalized by single-dose suramin treatment,"[1]; Thyroxine metabolism, plasma",Yes (1/1)
same,Pathway normalized by single-dose suramin treatment,"[1]; Tryptophan metabolism, plasma",Yes (1/1)
same,Pathway normalized by single-dose suramin treatment,"[1]; Vitamin B2 (riboflavin) metabolism, plasma",Yes (1/1)
same,Pathway normalized by single-dose suramin treatment,"[1]; Vitamin B3 (niacin/NAD) metabolism, plasma",Yes (1/1)
same,differences in metabolic profile between control and MIA animals,[1]; plasma 2 days after single dose suramin 20 mg kg^−1 i.p.,substantially normalized; also recorded: drives the metabolism of MIA animals (PIC-Sal) strongly in the direction of controls
same,social abnormalities,"[2]; 6.5-month-old MIA adults, single dose suramin 20 mg kg^−1 i.p.",completely reversed
same,social behavior five weeks after suramin washout,"[2]; MIA animals, 5 weeks after single dose",small residual benefit
same,motor coordination (rotarod),[3],failed to restore normal motor coordination
